Test results from patent US4831170A, “Pharmaceutically active phospino-hydrocarbon-group VIII-metal complexes, antitumor compositions containing these complexes, and a process for preparing said compounds or antitumor compositions” (priority 1985, dated 1989).

Assays:
[1] = Struck et al., J. Med. Chem., 9, 414 (1966); cited from earlier work
[2] = test system: HCT-116 human colon carcinoma cells; assay: In vitro cytotoxicity, HCT-116 human colon carcinoma cells (72 h, crystal violet); format: cell-based; conditions: HCT-116 cells
Procedure: (§1) Logarithmically growing cells were harvested by mild trypsinization and 4000 cells were added to each well of a 96-well microtiter plate (Costar). […] The cells were then treated with a metal complex or cisplatin and incubated for 72 hours. The plates were inverted and shaken to remove media, drug and detached cells. […] The fixative was removed, the plates air dried, stained with 0.0075% crystal violet for 15 minutes, washed twice and air dried. The stain was solubilized with 0.2 ml of 0.1 M AcOH/EtOH (1:1) and optical densities determined using a Dynatech MR600 microtiter plate reader. […] The compounds were prepared for in vivo treatment by dissolving or suspending, with the addition of minimal amounts of Tween 80, in water.

[3] = test system: B16-F10 murine melanoma cells; assay: In vitro cytotoxicity, B16-F10 murine melanoma cells (72 h, crystal violet); format: cell-based
Procedure: as §1

L1210 murine leukemia = assay: Antitumor activity against L1210 murine leukemia in CDF1 mice; format: in vivo; conditions: day 1; for L1210 Dose producing the maximum % T/C: administered ip; for L1210 Max. % T/C: median survival time treated/saline control x 100, ip, active if ≥125
Procedure: (§2) All of the metal complexes were tested for antitumor activity against P388 murine leukemia. Selected compounds were also tested for antitumor activity against L1210 murine leukemia and a subline of L1210 murine leukemia resistant to cisplatin (L1210:DDP). CDF1 mice weighing 20 grams were inoculated intraperitoneally with 10^6 ascites cells of P388 leukemia, L1210 leukemia or L1210:DDP leukemia, depending on the test system being used. Drug administration was initiated the day following tumor implantation in all test systems. The complexes were administered at various dose levels by intraperitoneal injection. Groups of four to six mice were used for each dose level and they were treated with the complex on day one only. A group of ten saline treated control mice was included in each experiment. Cisplatin treated groups were included as a positive control in each experiment. The mice were weighed before treatment and again on day five or six and the average weight change used as a measure of toxicity. The animals were observed daily for mortality and the experiments terminated after 30 days. Antitumor activity was determined based on % T/C, which is the ratio of the median survival time of the drug treated group to the median survival time of the saline treated control group times 100. The saline treated mice usually have a median survival time of 9 days with P388 leukemia and 7 days with L1210 and L1210/DDP leukemia. A complex is considered active if it produces a % T/C of ≥125.
(§3) Tables II and IIa contain summaries of the evaluations of the compounds for antitumor activity against the murine leukemias. Listed for each compound is the maximum % T/C achieved and the dose producing that effect.
(§4) For the in vitro cytotoxicity studies the drugs were dissolved or suspended, depending on their solubility, in 0.9% NaCl solution. Occasionally, 5% dextrose in water or 10% DMSO in 0.9% NaCl was used. The compounds were prepared for in vivo treatment by dissolving or suspending, with the addition of minimal amounts of Tween 80, in water.

[4] = test system: L1210 murine leukemia resistant to cisplatin (L1210:DDP); assay: Antitumor activity against cisplatin-resistant L1210 murine leukemia (L1210/DDP) in CDF1 mice; format: in vivo; conditions: cisplatin-resistant subline, day 1; for L1210/DDP Dose producing the maximum % T/C: administered ip; for L1210/DDP Max. % T/C: done concomitantly with L1210 test, ip, active if ≥125
Procedure: as §2, §3, §4

P388 murine leukemia = assay: Antitumor activity against P388 murine leukemia in CDF1 mice; format: in vivo; conditions: 1 x on day 1; for P 388 Dose producing the maximum % T/C: administered ip; for P 388 Maximum % T/C: median survival time treated/saline control x 100, ip, active if ≥125
Procedure: as §2, §3, §4

B16 Melanoma = assay: Antitumor activity against B16 Melanoma in BDF1 mice; format: in vivo; conditions: for B 16 Dose producing the maximum % T/C: administered ip, days 1-9; for B 16 Maximum % T/C: median survival time vs saline control, ip, daily days 1-9, active if ≥125, figures separated by slashes are from separate experiments
Procedure: Several of the metal complexes were additionally evaluated for antitumor activity against B16 Melanoma. BDF1 mice, 10 per group, were inoculated intraperitoneally with 0.5 ml of a 10 percent (w:v) brei of B16 Melanoma. Intraperitoneal treatment with the metal complexes was initiated one day after implant and continued daily for a total of nine days. From 4 to 5 doses were tested for each compound under study. A saline treated control group and cisplatin treated groups were included in each experiment. The mice were observed daily for survivors and the experiments terminated after 60 days. […] The median survival time of the drug treated mice relative to that of the controls (% T/C) was used as a measure of antitumor activity.
Occasionally, 5% dextrose in water or 10% DMSO in 0.9% NaCl was used. The compounds were prepared for in vivo treatment by dissolving or suspending, with the addition of minimal amounts of Tween 80, in water.

Row | Structure (SMILES) | cytotoxic activity [1] | IC 50 (concentration which inhibits cell growth by 50%), HCT 116 [2] [µg/mL] | IC 50 (concentration which inhibits cell growth by 50%), B 16 [3] [µg/mL] | L1210 Dose producing the maximum % T/C (L1210 murine leukemia) | L1210 Max. % T/C (L1210 murine leukemia) [% T/C] | L1210/DDP Dose producing the maximum % T/C [4] [mg/kg] | L1210/DDP Max. % T/C [4] [% T/C] | P 388 Dose producing the maximum % T/C (P388 murine leukemia) [mg/kg] | P 388 Maximum % T/C (P388 murine leukemia) [% T/C] | B 16 Dose producing the maximum % T/C (B16 Melanoma) [mg/kg/inj.] | B 16 Maximum % T/C (B16 Melanoma) [% T/C]
1 | c1ccc(P(CCP(c2ccccc2)c2ccccc2)c2ccccc2)cc1 [1,2-bis-(diphenylphosphino)ethane, 1,2-bis(diphenylphosphino)ethane] | cytotoxic activity |  |  |  |  |  |  |  |  |  | 
2 | O=[N+]([O-])[O-].O=[N+]([O-])[O-].[Pd+2].c1ccc(P(CCP(c2ccccc2)c2ccccc2)c2ccccc2)cc1.c1ccc(P(CCP(c2ccccc2)c2ccccc2)c2ccccc2)cc1 [TNO 345, Bis[1,2-bis(diphenylphosphino)ethane]palladium(II) dinitrate] |  | 19.6 | 4.0 | 0,8 mg/kg | 100 |  |  |  |  |  | 
3 | O=[N+]([O-])[O-].O=[N+]([O-])[O-].[Co+2].c1ccc(P(CCP(c2ccccc2)c2ccccc2)c2ccccc2)cc1.c1ccc(P(CCP(c2ccccc2)c2ccccc2)c2ccccc2)cc1 [TNO 347, Bis[1,2-bis(diphenylphosphino)ethane]nitrato cobalt(II) nitrate] |  | > 500 | 413 | 100 mg/kg | 100 | 50 | 150 | 100 | 161 | 20 | 171
4 | O=[N+]([O-])[O-].O=[N+]([O-])[O-].[Ni+2].c1ccc(P(CCP(c2ccccc2)c2ccccc2)c2ccccc2)cc1.c1ccc(P(CCP(c2ccccc2)c2ccccc2)c2ccccc2)cc1 [TNO 354, Bis[1,2-bis(diphenylphosphino)ethane]nickel(II) dinitrate] |  | 1.3 | 4.1 | 80 mg/kg | 100 | 80 | 138 | 50 | 139 | 30 | 183
5 | C(=CP(c1ccccc1)c1ccccc1)P(c1ccccc1)c1ccccc1.C(=CP(c1ccccc1)c1ccccc1)P(c1ccccc1)c1ccccc1.[Cl-].[Cl-].[Fe+2] [TNO 396, Bis[cis-1,2-bis(diphenylphosphino)ethylene]dichloro iron(II)] |  | 383 | 452 |  |  |  |  | 200 | 150 |  | 
